Read-outs that look alike come from different tables or passages of the source. Ends that are not written are not given here.
What was measured:
E. coli TOP10 = experiment: microbe, parasite or virus in culture; assay type: cell-based, Escherichia coli; details: for MIC [µM] 25%MHB: 25% (diluted) Mueller-Hinton Broth; for MIC [µM] 25%MHB / MIC [µM] 100%MHB: 5 × 10^5 cells ml^−1, twofold dilutions, 18 h, 37 °C, no shaking, OD read-out, MIC = < 5% of OD of growth control, mean, n = 3; for MIC [µM] 100%MHB: 100% Mueller-Hinton Broth; for MIC: Escherichia coli, TOP10, read-out: MIC of ampicillin (control) against E. coli TOP10, control
Method: On the same day at which MIC assays were executed, purified peptides were thawed and the concentration was determined by HPLC as described before. […] The cultures were then supplemented with 20% glycerol, aliquoted, and frozen at − 80 °C. […] Then the peptides were added by the liquid handling system in twofold dilutions using minimum of 100 µg ml^−1 as the highest concentration. MICs were determined as broth microdilution assay in 384-well flat bottom polypropylene plates (Falcon 96-Well Flat-Bottom Microplate) adapted from the protocol of Wiegand et al.[43]. The plates were sealed airtight and incubated for 18 h without shaking at 37 °C before reading the OD using a Tecan Infinite 200 PRO plate reader. […] MIC experiments were performed at least in triplicate.

human erythrocytes = experiment: Hemolysis assay using chemically synthesized peptides; assay type: cell-based; details: for Hemolysis at 16MIC: peptide at 16 × MIC; for Hemolysis at 16MIC / Hemolysis at MIC: human erythrocytes 1:50 in DPBS, 1 h, 37 °C, absorbance 540 nm, relative to full lysis with […] Triton-X100, n = 4; for Hemolysis at MIC: peptide at MIC; for hemolytic activity, in words: MIC/16 to 16 × MIC; for Hemolysis at 16MIC: relative to full lysis with 2.5% Triton-X100
Method: Two samples of human blood were obtained from a blood bank (Blutspendezentrum SRK at the University Hospital Basel). The samples were pooled and erythrocytes were isolated by repeated centrifugation at 500×g for 10 min, removal of the blood plasma and resuspending the remaining cells in an equal volume of DPBS. Following last resuspension, erythrocytes were diluted 1:50 in DPBS. […] To each well of the dilution plate, 100 μl of the red blood cells suspension was added. The plate was incubated for 1 h at 37 °C. […] The absorbance was measured at 540 nm using an Infinite M1000 PRO plate reader (Tecan) and corrected by the measurements from the untreated wells. The lysis of each peptide concentration was expressed relative to the lysis control (set as 100% lysis). […]

[1] = system: Staphylococcus aureus ATCC 29213; assay type: cell-based; details: chemically synthesized peptide, mean, n = 3
Method: (§1) On the same day at which MIC assays were executed, purified peptides were thawed and the concentration was determined by HPLC as described before. E. coli TOP10 cells were grown in Mueller Hinton Broth (MHB) or diluted MHB (25% of the original strength) overnight to stationary phase. Diluted MHB has been frequently used to assay antimicrobial peptides. The cultures were then supplemented with 20% glycerol, aliquoted, and frozen at − 80 °C. […] Then the peptides were added by the liquid handling system in twofold dilutions using minimum of 100 µg ml^−1 as the highest concentration. MICs were determined as broth microdilution assay in 384-well flat bottom polypropylene plates (Falcon 96-Well Flat-Bottom Microplate) adapted from the protocol of Wiegand et al.[43]. The plates were sealed airtight and incubated for 18 h without shaking at 37 °C before reading the OD using a Tecan Infinite 200 PRO plate reader. […] MIC experiments were performed at least in triplicate.

[2] = system: Klebsiella pneumonia ATCC 13883; assay type: cell-based; details: chemically synthesized peptide, mean, n = 3
Method: as §1

[3] = system: Enterococcus faecalis ATCC 29212; assay type: cell-based; details: chemically synthesized peptide, mean, n = 3
Method: as §1

[4] = system: Pseudomonas aeruginosa ATCC 47085; assay type: cell-based; details: chemically synthesized peptide, mean, n = 3
Method: as §1

E. coli ATCC 25922 = assay type: cell-based; details: chemically synthesized peptide, mean, n = 3
Method: as §1

[5] = Precipitation observed in the membrane damage assay; assay type: physicochemical; details: 100% MHB, printed as higher than 4xMIC (16 µM)
Method: The bacterial strain suspension was furthermore supplemented with a final concentration of 1 µg ml^−1 propidium iodide just before pipetting the assay. […] The fractions of PI-positive and GFP-positive were determined with the same gate for all populations using the FlowJo V10 software (BD Biosciences). The extracellular membrane integrity assay was performed in biological duplicates analyzing at least 10,000 cells in each experiment.

bacteria = system: bacteria; design: method as in earlier work; details: ref supplement references 1-15 (Table S1); cited from earlier work
E.coli = system: E.coli; design: method as in earlier work; details: ref supplement references 1-15 (Table S1); cited from earlier work

Compound | MIC [µM] 25%MHB (E. coli TOP10) | MIC [µM] 100%MHB (E. coli TOP10) | Hemolysis at 16MIC (human erythrocytes) | Hemolysis at MIC (human erythrocytes) | further results
AIAKLVAKFGWPIVKKYYKQIMQFIGEGWAINKIIEWIKK [Enterocin RJ-11 3780 NCBI] | 1 µM | 0.5 µM | 103.3% | 22.7% | hemolysis at the MIC compared to the Triton-X100 control (toxicity towards human erythrocytes) (human erythrocytes): > 5%
VKLIQIRIWIQYVTVLQMFSMKTKQ [Meucin-25 11598 APD] | > 60 µM | > 60 µM |  |  | 
GWFKKAWRKVKHAGRRVLDTAKGVGRHYLNNWLNRYR [HFIAP-1 4545 NCBI] | 0.5 µM | 0.5 µM | 18.9% | 4.1% | hemolytic activity, in words (human erythrocytes): displayed hemolytic activity at higher concentrations; MIC [µm] in MHB [1]: 1.4 µM; MIC [µm] in MHB [2]: 0.4 µM; MIC [µm] in MHB [3]: 5.6 µM; MIC [µm] in MHB [4]: 0.7 µM; MIC [µm] in MHB (E. coli ATCC 25922): 0.7 µM
CC[C@H](C)[C@H](NC(=O)[C@H](Cc1c[nH]c2ccccc12)NC(=O)[C@H](CCCCN)NC(=O)[C@@H](NC(=O)[C@H](CC(C)C)NC(=O)[C@H](CC(=O)O)NC(=O)CNC(=O)[C@@H](NC(=O)[C@@H](NC(=O)[C@H](CO)NC(=O)[C@@H](NC(=O)[C@@H](NC(=O)[C@H](CC(=O)O)NC(=O)[C@H](C)NC(=O)[C@H](C)NC(=O)[C@@H](N)CCSC)[C@@H](C)CC)[C@@H](C)CC)[C@@H](C)O)[C@@H](C)CC)C(C)C)C(=O)N[C@H](C(=O)N[C@@H](CC(=O)O)C(=O)N[C@H](C(=O)N[C@H](C(=O)N[C@@H](CC(N)=O)C(=O)N[C@@H](CCCCN)C(=O)N[C@@H](Cc1ccccc1)C(=O)N[C@@H](CCCCN)C(=O)O)C(C)C)[C@@H](C)O)[C@@H](C)CC [Delta lysin I 3458 NCBI] | > 60 µM | > 60 µM |  |  | 
GFKDWIKGAAKKLIKTVASSIANE [Ascaphin-6 9286 APD] | 1 µM | 0.8 µM | 1.4% | 0% | 
VSKIKKYLKYKDRI [P-10 8942 APD] | 13 µM | > 60 µM | 2.2% | 0.5% | 
TALKGAAKELASTYQH [Maximin 3 5468 NCBI] | > 60 µM | > 60 µM |  |  | 
KRFKKFFKKLKKSVKKRAKKFFKKPRVIGVSIPF [BF-CATH 9639 APD] | 1 µM | 1 µM | 4.8% | 2.1% | 
Melittin: highly membrane damaging peptide used as a control [reference compound] |  |  |  |  | concentration above which the peptide started to precipitate [5]: > 16 µM; hemolysis at the MIC compared to the Triton-X100 control (toxicity towards human erythrocytes) (human erythrocytes): > 5%
LKDKVKSMGEKLKQYIQTWKAKF [Latarcin 4a 5147 APD] | 5 µM | 8 µM | 2.8% | 0.2% | 
VDKGGYLPRPTPPRPVYR [Pyrrhocoricin 7122 NCBI] | 8 µM | 20 µM | 2.3% | 1.1% | 
GKFSGFAKILKSIAKFFKGVGKVRKGFKEASDLDKNQ [Oxyopinin 2b 9690 APD] | 0.5 µM | 0.5 µM | 63.4% | 0.7% | hemolytic activity, in words (human erythrocytes): displayed hemolytic activity at higher concentrations
Pyrrhocoricin PARENT: PARENT peptide on the APD, a ribosomal inhibitor |  |  |  |  | Reported antibacterial mechanism of action of parent (bacteria): Translation inhibition; Previously reported activity against E.coli of parent (E.coli): active
CC1(C)S[C@@H]2[C@H](NC(=O)[C@H](N)c3ccccc3)C(=O)N2[C@H]1C(=O)O [ampicillin, reference compound] |  |  |  |  | MIC (E. coli TOP10; 25% MHB): 17 µM; MIC (E. coli TOP10; 100% MHB): 34 µM

From paper PMC8904554, “Discovery of antimicrobials by massively parallelized growth assays (Me^x)” (Scientific Reports, 2022)
